Data reported in article PMC6269910 (Molecules, 2013).

Experiments:
myeloperoxidase (MPO) = assay: MPO activity in liver, kidney, colon, brain; type: in vivo, mice; conditions: 72 h
Experimental: MPO is an enzyme that is found predominantly in the azurophilic granules of polymorphonuclear leukocytes (PMN). […] MPO activity was measured in tissues in a procedure similar to that documented by […] et al.

[1] = tested on: superoxide dismutase (SOD); assay: SOD activity in liver, kidney, colon, brain; type: in vivo, mice; conditions: 72 h
Experimental: SOD is a major antioxidant enzyme found in cells, which protect cells from oxidative stress. SOD activity in the tissue samples was measured according to the previously described method.

MPO (myeloperoxidase (MPO); brain, 100 mg/kg oral): 0.73 ± 0.32 U/gtissue | MPO (myeloperoxidase (MPO); brain, 200 mg/kg oral): 1.95 ± 0.60 U/gtissue | MPO (myeloperoxidase (MPO); colon, 100 mg/kg oral): 0.27 ± 0.13 U/gtissue | MPO (myeloperoxidase (MPO); colon, 200 mg/kg oral): 0.38 ± 0.14 U/gtissue | MPO (myeloperoxidase (MPO); kidney, 100 mg/kg oral): 3.18 ± 2.66 U/g tissue | MPO (myeloperoxidase (MPO); kidney, 200 mg/kg oral): 4.59 ± 1.01 U/g tissue | MPO (myeloperoxidase (MPO); liver, 100 mg/kg oral): 0.50 ± 0.28 U/gtissue | MPO (myeloperoxidase (MPO); liver, 200 mg/kg oral): 0.15 ± 0.08 U/gtissue | SOD ([1]; brain, 100 mg/kg oral): 19.17 ± 7.41 U/g tissue | SOD ([1]; brain, 200 mg/kg oral): 19.22 ± 10.76 U/g tissue | SOD ([1]; colon, 100 mg/kg oral): 16.56 ± 4.13 U/g tissue | SOD ([1]; colon, 200 mg/kg oral): 21.17 ± 4.15 U/g tissue | SOD ([1]; kidney, 100 mg/kg oral): 20.26 ± 8.71 U/g tissue | SOD ([1]; kidney, 200 mg/kg oral): 15.37 ± 7.33 U/g tissue | SOD ([1]; liver, 100 mg/kg oral): 21.15 ± 9.98 U/g tissue | SOD ([1]; liver, 200 mg/kg oral): 11.72 ± 5.10 U/g tissue
SMILES: CCNC(=S)NS(=O)(=O)c1ccc(-n2nc(C(F)(F)F)cc2-c2ccc(C)cc2)cc1 [Compound 1a, N-(Ethylcarbamothioyl)-4-[5-(4-methylphenyl)-3-(trifluoromethyl)-1H-pyrazol-1-yl] benzenesulfonamide]
